The numbers were not newly measured in US7378109B2, “Pharmaceutical composition for improving palatability of drugs and process for preparation thereof” (Council of Scientific and Industrial Research, priority 2004, dated 2008), which cites them from elsewhere.

Structures are written as SMILES.

The conditions of the data set: humans, oral.

In the case of `CO/N=C(\C(=O)N[C@@H]1C(=O)N2C(C(=O)OC(C)OC(C)=O)=C(COC(N)=O)CS[C@H]12)c1ccco1` (stereo partly shown) [Cefuroxime axetil], the bioavailability was 32-50%.
